Consider seven compounds from US10266577B2, “GLP-1 derivatives, and uses thereof” (Novo Nordisk A/S, priority 2013, dated 2019).

Numbered stars: 1 amine (or outer) side, 2 acyl side, 3 side chain; on linkers, the order of the positions; unused ones are H or OH. Bridge positions count the residues as written; N and C are the ends. Square brackets hold non-standard residues; d marks the D form. Side chains are listed from the residue outwards. Ends that are not written are not given here. Peptide text beside a SMILES is read from it. I, II: the chains in the order shown. * marks the point of attachment. C18 diacid = O=C(O)CCCCCCCCCCCCCCCCC(=O)*; γGlu = O=C(O)[C@H](CCC(=O)[*:2])N[*:1]; εLys = N[C@@H](CCCCN[*:1])C(=O)[*:2]; AEEA = NCCOCCOCC(=O)O; Aib = CC(C)(N)C(=O)O

Data set [1] concerns the target T1, human GLP-1 receptor (Homo sapiens, UniProt P43220).
T1 construct: expressed in transfected cells; host or cells: BHK cells (parent line BHKTS13), clone FCW467-12A; membrane preparation
Description: GLP-1 receptor binding: competitive binding assay (125I-GLP-1, SPA) on isolated membranes at low and high HSA. Particulars: displacement of 125I-GLP-1; for IC50: high serum albumin (2.0% HSA final assay concentration). Background: Loss of bound radioactivity is the signal in a displacement assay; it reports binding, not function.
Description: The purpose of this example is to test the receptor binding of the GLP-1 derivatives in vitro. The receptor binding is a measure of affinity of a derivative for the human GLP-1 receptor.
In this type of assay a labelled ligand (in this case ^125I-GLP-1) is bound to the receptor. Each derivative is added in a series of concentrations to isolated membranes containing the human GLP-1 receptor and displacement of the labelled ligand is monitored. The receptor binding is reported as the concentration at which half of the labelled ligand is displaced from the receptor, the IC50 value.
The following chemicals were used in the assay: Human serum albumin (HSA) (Sigma A1653), DMEM w/o phenol red (Gibco 11880-028), Pen/strep (Invitrogen 15140-122), G418 (Invitrogen 10131-027), 1 M Hepes (Gibco 15630), EDTA (Invitrogen 15575-038), PBS (Invitrogen 14190-094), fetal calf serum (Invitrogen 16140-071), EGTA, MgCl2 (Merck 1.05832.1000), Tween 20 (Amresco 0850C335), SPA particles (wheat germ agglutinin (WGA) SPA beads, Perkin Elmer RPNQ0001), [^125I]-GLP-1]-(7-36)NH2 (produced in-house), OptiPlate™-96 (Packard 6005290).
Buffer 1 consisted of 20 mM Na-HEPES plus 10 mM EDTA and pH was adjusted to 7.4. Buffer 2 consisted of 20 mM Na-HEPES plus 0.1 mM EDTA and pH was adjusted to 7.4. Assay buffer consisted of 50 mM HEPES supplemented with 5 mM EGTA, 5 mM MgCl2, 0.005% Tween 20 and pH was adjusted to 7.4. An 8% albumin stock consisted of HSA dissolved at 8% (w/v) in assay buffer. An 0.02% albumin stock consisted of HSA dissolved at 0.02% (w/v) in assay buffer.
The cells express the human GLP-1 receptor.
The cells were grown at 5% CO2 in DMEM, 10% fetal calf serum, 1% Pen/Strep (Penicillin/Streptomycin) and 1.0 mg/ml of the selection marker G418.
To make a membrane preparation the cells were grown to approximately 80% confluence. The cells were washed twice in phosphate-buffered saline and harvested. The cells were pelleted using a brief centrifugation and the cell pellet was kept on ice. The cell pellet was homogenised with ULTRA-THURRAX™ dispersing instrument for 20-30 seconds in a suitable amount of buffer 1 (e.g., 10 ml). The homogenate was centrifuged for 15 minutes. The pellet was re-suspended (homogenised) in 10 ml buffer 2 and centrifuged. This step was repeated once more. The resulting pellet was re-suspended in buffer 2 and the protein concentration was determined. The membranes were aliquoted and stored at minus 80° C.
For the receptor binding assay in the presence of low HSA (0.005%) 50 μl of the assay buffer was added to each well of an assay plate. Assay continued with step 3.
For the receptor binding assay in the presence of high HSA (2%) 50 μl of the 8% albumin stock was added to each well of an assay plate. Assay continued with step 3.
Cell membrane aliquots were thawed and diluted to their working concentration. Fifty μl were added to each well in the assay plate.
WGA SPA beads were suspended in assay buffer at 20 mg/ml. The suspension was diluted to 10 mg/ml in assay buffer just prior to addition to the assay plate. Fifty μl were added to each well in the assay plate.
The incubation was started by adding 25 μl of 480 pM solution of [^125I]-GLP-1]-(7-36)NH2 to each well of the assay plate. A 25 μl aliquot was reserved for measuring total counts/well.
The assay plate was incubated for 2 h at 30° C.
The assay plate was centrifuged for 10 min.
The assay plate was read in a Packard TopCount NXT instrument.
The data from the TopCount instrument were transferred to GraphPad Prism software. The software averaged the values for the replicates and performed a non-linear regression. IC50 values were calculated by the software and reported in nM.

The target in data set [2] is T1, human GLP-1 receptor. The data set is described as follows: In vitro potency: CRE luciferase reporter gene assay in BHK cells expressing the human GLP-1 receptor. The format is cell-based. Particulars: whole cell reporter gene assay, BHK clone FCW467-12A/KZ10-1; averages of at least two replicates.
Description: The purpose of this example is to test the activity, or potency, of the GLP-1 derivatives in vitro. The in vitro potency is the measure of human GLP-1 receptor activation in a whole cell assay.
In vitro potency was determined by measuring the response of the human GLP-1 receptor in a reporter gene assay. The assay was performed in a stably transfected BHK cell line that expresses the human GLP-1 receptor and contains the DNA for the cAMP response element (CRE) coupled to a promoter and the gene for firefly luciferase (CRE luciferase). When the human GLP-1 receptor is activated it results in the production of cAMP, which in turn results in the luciferase protein being expressed. When assay incubation is completed the luciferase substrate (luciferin) is added and the enzyme converts luciferin to oxyluciferin to produce bioluminescence. The luminescence is measured as the readout for the assay.
The cells were cultured at 5% CO2 in Cell Culture Medium. They were aliquoted and stored in liquid nitrogen. Before each assay an aliquot is taken up and washed twice in PBS before being suspended at the desired concentration in the assay specific buffer. For 96-well plates the suspension was made to give a final concentration of 5×10^3 cells/well.
The following chemicals were used in the assay: Pluronic F-68 (10%) (Gibco 2404), human serum albumin (HSA) (Sigma A9511), ovalbumin (Sigma A5503), DMEM w/o phenol red (Gibco 11880-028), 1 M Hepes (Gibco 15630), Glutamax 100× (Gibco 35050) and steadylite plus (PerkinElmer 6016757).
Cell Culture Medium consisted of DMEM medium with 10% FBS (Fetal Bovine Serum; Invitrogen 16140-071), 1 mg/ml G418 (Invitrogen 15140-122), 240 nM MTX (methotrexate; Sigma M9929) and 1% pen/strep (penicillin/streptomycin; Invitrogen 15140-122).
Assay Medium consisted of DMEM w/o phenol red, 10 mM Hepes and 1× Glutamax. The Assay Buffer consisted of 2% ovalbumin and 0.2% Pluronic F-68 in Assay Medium.
1) Cell stocks were thawed in a 37° C. water bath.
2) Cells were washed three times in PBS.
3) The cells were counted and adjusted to 5×10^3 cells/50 μl (1×10^5 cells/ml) in Assay Medium. A 50 μl aliquot of cells was transferred to each well in the assay plate.
4) Stocks of the test compounds and reference compounds were diluted to a concentration of 0.2 pM in Assay Buffer. […] Compounds were tested at the following final concentrations: 1×10^−7 M, 1×10^−8 M; 1×10^−9 M, 1×10^−10 M, 1×10^−11 M, 1×10^−12 M, 1×10^−13 M, and 1×10^−14 M. 6) The assay plate was incubated for 3 h in a 5% CO2 incubator at 37° C. 7) The assay plate was removed from the incubator and allowed to stand at room temperature for 15 min. 8) A 100 μl aliquot of steadylite plus reagent was added to each well of the assay plate (reagent was light sensitive). 9) Each assay plate was covered with aluminum foil to protect it from light and shaken for 30 min at room temperature. 10) Each assay plate was read in a Packard TopCount NXT instrument. Calculations and Results
The data from the TopCount instrument were transferred to GraphPad Prism software. The software performs a non-linear regression (log(agonist) vs response).
A minimum of two replicates was measured for each sample. The reported values are averages of the replicates.
The next data set is described as follows: in vivo. To be noted: male, Göttingen, minipig, iv.

T1 sequence (P43220 24-463): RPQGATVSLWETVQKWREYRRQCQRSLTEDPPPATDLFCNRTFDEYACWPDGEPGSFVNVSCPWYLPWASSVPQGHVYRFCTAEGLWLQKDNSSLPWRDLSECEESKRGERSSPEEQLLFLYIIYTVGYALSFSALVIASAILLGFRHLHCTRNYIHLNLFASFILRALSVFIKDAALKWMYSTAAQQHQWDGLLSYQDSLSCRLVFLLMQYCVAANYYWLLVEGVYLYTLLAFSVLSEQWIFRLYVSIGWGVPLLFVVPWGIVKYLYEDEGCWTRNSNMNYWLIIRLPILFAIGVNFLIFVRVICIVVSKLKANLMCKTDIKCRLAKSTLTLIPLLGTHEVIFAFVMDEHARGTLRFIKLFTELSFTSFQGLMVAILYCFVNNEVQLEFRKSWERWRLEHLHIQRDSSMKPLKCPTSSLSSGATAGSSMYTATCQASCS
Description for in vivo: The purpose of this study is to determine the protraction in vivo of the GLP-1 derivatives after i.v. administration to minipigs, i.e. the prolongation of their time in the body and thereby their time of action. This is done in a pharmacokinetic (PK) study, where the terminal half-life of the derivative in question is determined. By terminal half-life is meant the time it takes to halve a certain plasma concentration in the terminal elimination phase.
Male Göttingen minipigs were obtained from Ellegaard Göttingen Minipigs (Dalmose, Denmark) approximately 7-14 months of age and weighing approximately 16-35 kg were used in the studies. The minipigs were housed either individually (pigs with permanent catheters) or in a group and fed restrictedly once or twice daily with SDS minipig diet (Special Diets Services, Essex, UK).
After at least 2 weeks of acclimatisation two permanent central venous catheters were implanted in vena cava caudalis or cranialis in each animal. The animals were allowed 1 week recovery after the surgery, and were then used for repeated pharmacokinetic studies with a suitable wash-out period between successive GLP-1 derivative dosings.
Blood samples (for example 0.8 ml) were collected in EDTA buffer (8 mM) and then centrifuged at 4° C. and 1942G for 10 minutes.
Plasma was pipetted into Micronic tubes on dry ice, and kept at −20° C. until analysed for plasma concentration of the respective GLP-1 compound using LOCI. Individual plasma concentration-time profiles were analyzed by a non-compartmental pharmacokinetic method in Phoenix v. 6.2 (Pharsight Inc., Mountain View, Calif., USA), or other relevant software for PK analysis, and the resulting terminal half-lives (harmonic mean) determined.

For “I: H[Aib]EGTFTSDVSKYLEGQAARKFIAWLVRGRK / II: {C18 diacid-γGlu}-SSSSSS / III: {C18 diacid-γGlu}-SSSSSS / IV: {C18 diacid-γGlu}-SSSSSS (amide I:12-III:C, I:21-II:C, I:31-IV:C) [Example 9]”, at human GLP-1 receptor [1], the half-maximal inhibitory concentration (IC50) (usually the midpoint of a concentration-inhibition curve) is > 1000 nM. Besides, the EC50 (usually the concentration at which the effect is half-maximal) on human GLP-1 receptor [2] is 0.067 nM.
For the compound `CC[C@H](C)[C@H](NC(=O)[C@H](Cc1ccccc1)NC(=O)[C@H](CCCCNC(=O)[C@@H](N)CCCCNC(=O)COCCOCCNC(=O)COCCOCCNC(=O)CC[C@H](NC(=O)CCCCCCCCCCCCCCCCC(=O)O)C(=O)O)NC(=O)[C@H](CCCNC(=N)N)NC(=O)[C@H](C)NC(=O)[C@H](C)NC(=O)[C@H](CCC(N)=O)NC(=O)[C@H](CCC(=O)O)NC(=O)[C@H](CCC(=O)O)NC(=O)[C@H](CC(C)C)NC(=O)[C@H](Cc1ccc(O)cc1)NC(=O)[C@H](CCCCNC(=O)[C@@H](N)CCCCNC(=O)COCCOCCNC(=O)COCCOCCNC(=O)CC[C@H](NC(=O)CCCCCCCCCCCCCCCCC(=O)O)C(=O)O)NC(=O)[C@H](CO)NC(=O)[C@@H](NC(=O)[C@H](CC(=O)O)NC(=O)[C@H](CO)NC(=O)[C@@H](NC(=O)[C@H](Cc1ccccc1)NC(=O)[C@@H](NC(=O)CNC(=O)[C@H](CCC(=O)O)NC(=O)C(C)(C)NC(=O)[C@@H](N)Cc1c[nH]cn1)[C@@H](C)O)[C@@H](C)O)C(C)C)C(=O)N[C@@H](C)C(=O)N[C@@H](Cc1c[nH]c2ccccc12)C(=O)N[C@@H](CC(C)C)C(=O)N[C@H](C(=O)N[C@@H](CCCNC(=N)N)C(=O)NCC(=O)N[C@@H](CCCNC(=N)N)C(=O)N[C@@H](CCCCNC(=O)[C@@H](N)CCCCNC(=O)COCCOCCNC(=O)COCCOCCNC(=O)CC[C@H](NC(=O)CCCCCCCCCCCCCCCCC(=O)O)C(=O)O)C(=O)O)C(C)C` [Example 6] (H-H[Aib]EGTFTSDVSK([εLys-AEEA-AEEA-γGlu-C18 diacid])YLEEQAARK([εLys-AEEA-AEEA-γGlu-C18 diacid])FIAWLVRGRK([εLys-AEEA-AEEA-γGlu-C18 diacid])-OH; N-terminus and C-terminus assumed), the half-life – broadly, how long it takes for the measured level to halve – in the data set “in vivo” is 103 h. The same compound registered a Low HSA IC50 on human GLP-1 receptor [1] (Low HSA IC50, low serum albumin (max. 0.001% final assay concentration)) of 0.4 nM. Moreover, on human GLP-1 receptor [1], the IC50 was > 1000 nM.
`CC[C@H](C)[C@H](NC(=O)[C@H](Cc1ccccc1)NC(=O)[C@H](CCC(=O)O)NC(=O)[C@H](CCCNC(=N)N)NC(=O)[C@H](C)NC(=O)[C@H](C)NC(=O)[C@H](CCC(N)=O)NC(=O)[C@H](CCCCNC(=O)COCCOCCNC(=O)COCCOCCNC(=O)COCCOCCNC(=O)COCCOCCNC(=O)COCCOCCNC(=O)[C@@H](N)CCCCNC(=O)[C@@H](N)CCCCNC(=O)[C@@H](N)CCCCNC(=O)CCCCCCCCCCCCCCCCC(=O)O)NC(=O)[C@H](CCC(=O)O)NC(=O)[C@H](CC(C)C)NC(=O)[C@H](Cc1ccc(O)cc1)NC(=O)[C@H](CCCCNC(=O)COCCOCCNC(=O)COCCOCCNC(=O)COCCOCCNC(=O)COCCOCCNC(=O)COCCOCCNC(=O)[C@@H](N)CCCCNC(=O)[C@@H](N)CCCCNC(=O)[C@@H](N)CCCCNC(=O)CCCCCCCCCCCCCCCCC(=O)O)NC(=O)[C@H](CO)NC(=O)[C@@H](NC(=O)[C@H](CC(=O)O)NC(=O)[C@H](CO)NC(=O)[C@@H](NC(=O)[C@H](Cc1ccccc1)NC(=O)[C@@H](NC(=O)CNC(=O)[C@H](CCC(=O)O)NC(=O)C(C)(C)NC(=O)[C@@H](N)Cc1c[nH]cn1)[C@@H](C)O)[C@@H](C)O)C(C)C)C(=O)N[C@@H](CCCCNC(=O)COCCOCCNC(=O)COCCOCCNC(=O)COCCOCCNC(=O)COCCOCCNC(=O)COCCOCCNC(=O)[C@@H](N)CCCCNC(=O)[C@@H](N)CCCCNC(=O)[C@@H](N)CCCCNC(=O)CCCCCCCCCCCCCCCCC(=O)O)C(=O)N[C@@H](Cc1c[nH]c2ccccc12)C(=O)N[C@@H](CC(C)C)C(=O)N[C@H](C(=O)N[C@@H](CCCNC(=N)N)C(=O)NCC(=O)N[C@@H](CCCNC(=N)N)C(=O)NCC(=O)O)C(C)C` [Example 17]: in “in vivo”, the half-life was 143 h. The same compound gave an EC50 on human GLP-1 receptor [2] of 0.018 nM.
For `CC[C@H](C)[C@H](NC(=O)[C@H](Cc1ccccc1)NC(=O)[C@H](CCCCNC(=O)COCCOCCNC(=O)COCCOCCNC(=O)CC[C@H](NC(=O)CCCCCCCCCCCCCCCCC(=O)O)C(=O)O)NC(=O)[C@H](CCCNC(=N)N)NC(=O)[C@H](C)NC(=O)[C@H](C)NC(=O)[C@H](CCC(N)=O)NC(=O)[C@H](CCC(=O)O)NC(=O)[C@H](CCC(=O)O)NC(=O)[C@H](CC(C)C)NC(=O)[C@H](Cc1ccc(O)cc1)NC(=O)[C@H](CO)NC(=O)[C@H](CO)NC(=O)[C@@H](NC(=O)[C@H](CC(=O)O)NC(=O)[C@H](CO)NC(=O)[C@@H](NC(=O)[C@H](Cc1ccccc1)NC(=O)[C@@H](NC(=O)CNC(=O)[C@H](CCC(=O)O)NC(=O)C(C)(C)NC(=O)[C@@H](N)Cc1c[nH]cn1)[C@@H](C)O)[C@@H](C)O)C(C)C)C(=O)N[C@@H](CCCCNC(=O)COCCOCCNC(=O)COCCOCCNC(=O)CC[C@H](NC(=O)CCCCCCCCCCCCCCCCC(=O)O)C(=O)O)C(=O)N[C@@H](Cc1c[nH]c2ccccc12)C(=O)N[C@@H](CC(C)C)C(=O)N[C@H](C(=O)N[C@@H](CCCNC(=N)N)C(=O)NCC(=O)N[C@@H](CCCNC(=N)N)C(=O)N[C@@H](CCCCNC(=O)COCCOCCNC(=O)COCCOCCNC(=O)CC[C@H](NC(=O)CCCCCCCCCCCCCCCCC(=O)O)C(=O)O)C(=O)O)C(C)C` [Example 10] (H-H[Aib]EGTFTSDVSSYLEEQAARK([AEEA-AEEA-γGlu-C18 diacid])FIK([AEEA-AEEA-γGlu-C18 diacid])WLVRGRK([AEEA-AEEA-γGlu-C18 diacid])-OH; N-terminus and C-terminus assumed) the same measures were 158 h and 0.026 nM.
As for `CC[C@H](C)[C@H](NC(=O)[C@H](Cc1ccccc1)NC(=O)[C@H](CCCCNC(=O)COCCOCCNC(=O)COCCOCCNC(=O)CC[C@H](NC(=O)CCCCCCCCCCCCCCCCC(=O)O)C(=O)O)NC(=O)[C@H](CCCNC(=N)N)NC(=O)[C@H](C)NC(=O)[C@H](C)NC(=O)[C@H](CCC(N)=O)NC(=O)[C@H](CCC(=O)O)NC(=O)[C@H](CCC(=O)O)NC(=O)[C@H](CC(C)C)NC(=O)[C@H](Cc1ccc(O)cc1)NC(=O)[C@H](CCCCNC(=O)COCCOCCNC(=O)COCCOCCNC(=O)CC[C@H](NC(=O)CCCCCCCCCCCCCCCCC(=O)O)C(=O)O)NC(=O)[C@H](CO)NC(=O)[C@@H](NC(=O)[C@H](CC(=O)O)NC(=O)[C@H](CO)NC(=O)[C@@H](NC(=O)[C@H](Cc1ccccc1)NC(=O)[C@@H](NC(=O)CNC(=O)[C@H](CCC(=O)O)NC(=O)C(C)(C)NC(=O)[C@@H](N)Cc1c[nH]cn1)[C@@H](C)O)[C@@H](C)O)C(C)C)C(=O)N[C@@H](C)C(=O)N[C@@H](Cc1c[nH]c2ccccc12)C(=O)N[C@@H](CC(C)C)C(=O)N[C@H](C(=O)N[C@@H](CCCNC(=N)N)C(=O)NCC(=O)N[C@@H](CCCNC(=N)N)C(=O)N[C@@H](CCCCNC(=O)COCCOCCNC(=O)COCCOCCNC(=O)CC[C@H](NC(=O)CCCCCCCCCCCCCCCCC(=O)O)C(=O)O)C(=O)O)C(C)C` [Example 5] (H-H[Aib]EGTFTSDVSK([AEEA-AEEA-γGlu-C18 diacid])YLEEQAARK([AEEA-AEEA-γGlu-C18 diacid])FIAWLVRGRK([AEEA-AEEA-γGlu-C18 diacid])-OH; N-terminus and C-terminus assumed), the IC50 at human GLP-1 receptor [1] is > 1000 nM.
On to `CC[C@H](C)[C@H](NC(=O)[C@H](Cc1ccccc1)NC(=O)[C@H](CCC(=O)O)NC(=O)[C@H](CCCNC(=N)N)NC(=O)[C@H](C)NC(=O)[C@H](C)NC(=O)[C@H](CCC(N)=O)NC(=O)[C@H](CCCCNC(=O)COCCOCCNC(=O)COCCOCCNC(=O)[C@@H](N)CCCCNC(=O)CCCCCCCCCCCCCCCS(=O)(=O)O)NC(=O)[C@H](CCC(=O)O)NC(=O)[C@H](CC(C)C)NC(=O)[C@H](Cc1ccc(O)cc1)NC(=O)[C@H](CCCCNC(=O)COCCOCCNC(=O)COCCOCCNC(=O)[C@@H](N)CCCCNC(=O)CCCCCCCCCCCCCCCS(=O)(=O)O)NC(=O)[C@H](CO)NC(=O)[C@@H](NC(=O)[C@H](CC(=O)O)NC(=O)[C@H](CO)NC(=O)[C@@H](NC(=O)[C@H](Cc1ccccc1)NC(=O)[C@@H](NC(=O)CNC(=O)[C@H](CCC(=O)O)NC(=O)C(C)(C)NC(=O)[C@@H](N)Cc1c[nH]cn1)[C@@H](C)O)[C@@H](C)O)C(C)C)C(=O)N[C@@H](CCCCNC(=O)COCCOCCNC(=O)COCCOCCNC(=O)[C@@H](N)CCCCNC(=O)CCCCCCCCCCCCCCCS(=O)(=O)O)C(=O)N[C@@H](Cc1c[nH]c2ccccc12)C(=O)N[C@@H](CC(C)C)C(=O)N[C@H](C(=O)N[C@@H](CCCNC(=N)N)C(=O)NCC(=O)N[C@@H](CCCNC(=N)N)C(=O)NCC(=O)O)C(C)C` [Example 13], for which it took 0.026 nM to reach a half-maximal effect at human GLP-1 receptor [2] (EC50).
Take `CC[C@H](C)[C@H](NC(=O)[C@H](Cc1ccccc1)NC(=O)[C@H](CCC(=O)O)NC(=O)[C@H](CCCNC(=N)N)NC(=O)[C@H](C)NC(=O)[C@H](C)NC(=O)[C@H](CCC(N)=O)NC(=O)[C@H](CCCCNC(=O)COCCOCCNC(=O)COCCOCCNC(=O)COCCOCCNC(=O)COCCOCCNC(=O)COCCOCCNC(=O)[C@@H](N)CCCCNC(=O)[C@@H](N)CCCCNC(=O)CCCCCNC(=O)CCCCCCCCCCCCCCCS(=O)(=O)O)NC(=O)[C@H](CCC(=O)O)NC(=O)[C@H](CC(C)C)NC(=O)[C@H](Cc1ccc(O)cc1)NC(=O)[C@H](CCCCNC(=O)COCCOCCNC(=O)COCCOCCNC(=O)COCCOCCNC(=O)COCCOCCNC(=O)COCCOCCNC(=O)[C@@H](N)CCCCNC(=O)[C@@H](N)CCCCNC(=O)CCCCCNC(=O)CCCCCCCCCCCCCCCS(=O)(=O)O)NC(=O)[C@H](CO)NC(=O)[C@@H](NC(=O)[C@H](CC(=O)O)NC(=O)[C@H](CO)NC(=O)[C@@H](NC(=O)[C@H](Cc1ccccc1)NC(=O)[C@@H](NC(=O)CNC(=O)[C@H](CCC(=O)O)NC(=O)C(C)(C)NC(=O)[C@@H](N)Cc1c[nH]cn1)[C@@H](C)O)[C@@H](C)O)C(C)C)C(=O)N[C@@H](CCCCNC(=O)COCCOCCNC(=O)COCCOCCNC(=O)COCCOCCNC(=O)COCCOCCNC(=O)COCCOCCNC(=O)[C@@H](N)CCCCNC(=O)[C@@H](N)CCCCNC(=O)CCCCCNC(=O)CCCCCCCCCCCCCCCS(=O)(=O)O)C(=O)N[C@@H](Cc1c[nH]c2ccccc12)C(=O)N[C@@H](CC(C)C)C(=O)N[C@H](C(=O)N[C@@H](CCCNC(=N)N)C(=O)NCC(=O)N[C@@H](CCCNC(=N)N)C(=O)NCC(=O)O)C(C)C` [Example 20]: the IC50 on human GLP-1 receptor [1] is 100 nM.
